In patent publication US10934258B2, “Materials for use in an aqueous organic redox flow battery” (Utah State University, priority 2016, dated 2021):
≈ marks a conversion by molar mass, not a printed value. Where “and” joins values, the source holds several entries; their conditions need not be identical. Equal values may be shown once.

Legend:
[1] = Cyclic and square wave voltammetry (redox potentials); format: physicochemical; details: for redox potential (redox wave in cyclic voltammogram) / Exp. E1/2, first reduction / Exp. E1/2, second reduction: 4 mM in 0.5 M NaCl; for Exp. E1/2, first reduction: first redox couple; for Exp. E1/2, second reduction: second redox couple; for redox / reversible oxidation potential of catholyte: electrolyte not stated
Experimental: Electrochemical Cyclic voltammetry (CV) studies. All electrochemical CV experiments were carried out in 0.5 M NaCl electrolyte solutions. Cyclic voltammetry experiments were performed with a Gamry 1000E potentiostat. All potentials were referenced to NHE according to the known MV^2+/1+ redox couple (−0.45 V vs NHE). The working electrode (1 mm PEEK-encased glassy carbon, Cypress Systems EE040) was polished using Al2O3(BAS CF-1050, dried at 150° C. under vacuum) suspended in deionized H2O, then rinsed with deionized H2O and dried with an air flow. The reference electrode was a silver wire coated with a layer of AgCl and suspended in a solution of 0.5 M NaCl electrolyte. A glassy carbon rod (Structure Probe, Inc.) was used as the counter electrode.
Cyclic and square wave voltammetry studies: All experiments were conducted in an […], 0.5 M NaCl aqueous solution, and performed with a Gamry 1000E potentiostat. A 1 mm PEEK encased glassy carbon disk was used as the working electrode. The working electrode was polished with 0.05 micron Al2O3 powder and rinsed with deionized H2O. A glassy carbon rod was used as the counter electrode. A silver wire coated with AgCl and suspended in 3.0 M KCl electrolyte was used as the reference electrode.
The redox potentials were calculated directly versus MV which was derived from the Born-Haber method. This calculation predicts the redox potential of the viologen by comparing it to the experimentally determined potentials for MV. Square wave voltammetry was employed to most accurately measure E1/2 for the two reductions of viologen compounds (FIG. 42). The calculation of the theoretical redox potential vs MV can be simplified as shown below: […]

[2] = Solubility by preparing a super-saturated solution; details: for solubility: thermodynamic from solid
Experimental: Chemicals and Materials. All chemicals were purchased from Aldrich or TCI, stored in an Argon glovebox, and used directly. Solubility of substituted ferrocene compounds was measured in water by preparing a super-saturated solution in a volumetric cylinder. Deionized water was purged overnight using N2 before use. All experimental operations were conducted under a N2 atmosphere. Conductivity of the electrolyte solutions was measured using a Mettler Toledo conductivity meter at R.T. NMR studies were conducted using a Bruker 500 MHz NMR spectrometer. UV-Vis was collected using an Ocean Optic spectrometer. Elemental analysis was done at Atlantic Microlab.
Calculation of theoretical energy density: The theoretical energy density of the FcNCl/MV AORFB was calculated using equation 3 below, where n is the number of electrons involved into the cell reaction, C is the concentration of active materials, F is Faraday constant, 26.8 Ah/mol, V is the cell voltage, and 2 represents a factor considering both volumes of anolyte and catholyte. Solubility of FcNCl and MV was measured in water respectively by preparing a super-saturated solution. Similar solubility tests in water were applied for ferrocenecarboxylic acid, 1-1′-ferrocenedicarboxilic acid, ferrocenecarboxylic acid, and 1,1′-ferrocenedimethanol. Energy density (Wh/L)=nCFV/2 (equation 3)

[3] = RDE linear sweep voltammetry with Levich and Tafel analysis; format: physicochemical; details: 1.0 mM in 0.5 M NaCl
Experimental: Electrochemical RDE studies: All linear sweep voltammetry (LSV) studies were conducted using a Gamry 1000E potentiostat in a three-electrode configuration, a glassy carbon disk working electrode (5 mm Teflon encased glassy carbon disk, Pine Research Instrumentation) along with a glassy carbon counter electrode and a Ag/AgCl reference electrode same as used in CV studies. Before data collection, the disk electrode was prepared using the procedure described in the CV studies. The electrode was then rotated at from 300 to 2400 rpm with an increment of 300 rpm, which was controlled by a Pine MSR rotator system. LSV scans were recorded at a rate of 5 mV/s from 0.3 V to 0.8 V vs NHE. At each rotation rate, the LSV were recorded 3 times to ensure repeatability. The limiting currents (i.e. the mass transport-limited current intensity) were taken at 0.7 V vs NHE for FcNCl and plotted over the square root of the rotation rate (rad/s). The data were fitted to yield a straight Levich plot, with the slope defined by the Levich equation (equation 1 below), where n=1 for one electron process, Faraday's constant F=96485 C/mol, electrode area A=0.1935 cm^2, FcNCl concentration Co=1.0 mM, D is diffusion coefficient, kinematic viscosity n=0.009 cm^2/s for 0.5 M NaCl solution. The calculations yielded the diffusion coefficients of FcNCl as 3.25×10^−6 cm^2/s. A plot of overpotential versus log10(iK) was constructed for the LSV data collected at […] for FcNCl where iK is the kinetic current for the oxidation of FcNCl. […] Levich plot slope=0.620nFACOD^2/3v^−1/6 (equation 1) i0=FACOk0 (equation 2)
Electrochemical RDE studies: Linear sweep voltammetry (LSV) experiments were conducted using a Gamry 1000E potentiostat with a three-electrode system. A 5 mm rotating glassy carbon disk encased in Teflon served as the working electrode. A glassy carbon rod was used as the counter electrode. A Ag/AgCl wire served as the reference electrode. The working electrode was cleaned using the same method as in the CV experiments. During the experiments, the working electrode rotated from 300 rpm to 2400 rpm at increments of 300 rpm. Three scans at each rotation rate were collected to ensure accuracy. (NPr)2V: LSV scans were conducted at a rate of 5 mV/s from 0.1 V to −1.2 V versus NHE. The limiting currents (mass transport-limited current intensity) at each rotation rate were recorded at −0.57 V and −0.95 V versus NHE. […] The slopes of these fitted lines are defined by the Levich equation, Levich Plot Slope=0.620nFAC0D^2/3v^−1/6 (equation 1)
[…] Plots of overpotential versus log10(ik) were constructed from the 2400 rpm LSV, where ik is the kinetic current of each reduction of (NPr)2V. The x-intercept of the fitted Tafel plot represents the log of the exchange current i0 that is defined by: i0=FAC0k^0 (equation 2)
where F, A, and C0 are defined above, and k^0 represents the electron transfer rate constant.
(NPr)(SPr)V, (Me)(NPr)V, (SPr)2V, and [FcN^Et]Br: LSV scans were collected and analyzed using the same techniques described for (NPr)2V.

[4] = Conductivity of the electrolyte solutions; format: physicochemical; design: electrolyte conductivity: unit not given here
Experimental: Chemicals and Materials. […] Deionized water was purged overnight using N2 before use. All experimental operations were conducted under a N2 atmosphere. […] UV-Vis was collected using an Ocean Optic spectrometer. Elemental analysis was done at Atlantic Microlab.

[5] = known value, potential reference; cited from earlier work

Compound | redox potential (redox wave in cyclic voltammogram) [1] | solubility ([2]; water) [mM] | solubility in water, [C] [2] [mM] | Exp. E1/2, first reduction [1] [V vs. NHE] | Exp. E1/2, second reduction [1] [V vs. NHE] | diffusion constant, D, first reduction ([3]; Levich) | electron transfer rate constant, k^0, first reduction ([3]; Tafel) | other results
CC(C[N+](C)(C)C[c-]1cccc1)[N+](C)(C)C.[Br-].[Br-].[Fe+2].c1cc[cH-]c1 (centres unmarked) [FcN2, N^1-ferrocenylmethyl-N^1, N^1, N^2, N^2, N^2-pentamethylpropane-1,2-diaminium dibromide] | 0.62 V vs NHE | – | – | – | – | – | – | –
[Br-].[Br-].[Zn+2] [ZnBr2, reference compound] | −1.2 V vs NHE | – | – | – | – | – | – | –
C[N+](C)(C)CCC[c-]1cccc1.[Cl-].[Fe+2].c1cc[cH-]c1 [prop-FcNCl, (ferrocenylpropyl)trimethylammonium chloride] | – | ~2200 | – | – | – | – | – | –
C[n+]1ccc(-c2cc[n+](CCC[N+](C)(C)C)cc2)cc1.[Cl-].[Cl-].[Cl-] [(Me)(NPr)V, 1′-methyl-4′-pyridinium-1-[3-(trimethylaminium)propyl]-4-pyridinium trichloride] | – | – | 1800 | −0.39 | −0.78 | 5.40 × 10^−6 cm^2/s | 2.39e-05 cm/s | solubility in H2O [2]: 1800 mM; diffusion constant, D, second reduction ([3]; Levich): 5.29 × 10^−6 cm^2/s; electron transfer rate constant, k^0, second reduction ([3]; Tafel): 1.84e-05 cm/s
C[N+](C)(C)CCC[n+]1ccc(-c2cc[n+](CCCS(=O)(=O)[O-])cc2)cc1.[Br-].[Br-] [(NPr)(SPr)V, 1′-[3-(trimethylammonium)propyl]-4′-pyridinium-1-[3-sulfonatopropyl]-4-pyridinium dibromide] | – | – | 1600 | −0.37 | −0.74 | 4.96 × 10^−6 cm^2/s | 3.5e-05 cm/s | solubility in H2O [2]: 1600 mM; diffusion constant, D, second reduction ([3]; Levich): 5.04 × 10^−6 cm^2/s; electron transfer rate constant, k^0, second reduction ([3]; Tafel): 2.09e-05 cm/s
C[N+](C)(C)C[c-]1cccc1.[Cl-].[Fe+2].c1cc[cH-]c1 [FcNCl, (ferrocenylmethyl)trimethylammonium chloride] | 0.60 V vs NHE | ~4000 | – | – | – | – | – | diffusion coefficient (oxidation) ([3]; Levich): 3.25×10^−6 cm^2/s and 3.74×10^−6 cm^2/s; electron transfer rate constant k0 (oxidation) ([3]; Tafel): 2.29e-05 cm/s and 3.66e-05 cm/s; exchange current i0 ([3]; Tafel X-intercept): 0.7 μA; electrolyte conductivity ([4]; 0.5 M in 2.0 M NaCl): 135
C[N+](C)(C)CCC[n+]1ccc(-c2cc[n+](CCC[N+](C)(C)C)cc2)cc1.[Br-].[Br-].[Br-].[Br-] [(NPr)2V, 1,1′-bis[3-(trimethylamonium)propyl]-4,4′-bipyridinium, tetrabromide] | – | – | 1600 | −0.35 | −0.72 | 3.88×10^−6 cm^2/s | 4.32e-06 cm/s and 4.32e-05 cm/s | solubility in H2O [2]: 1600 mM; effective redox potential (average of the two reductions) ([1]; average of −0.35 and −0.72 V): −0.54 V; diffusion constant, D, second reduction ([3]; Levich): 3.84×10^−6 cm^2/s; electron transfer rate constant, k^0, second reduction ([3]; Tafel): 2.46e-06 cm/s and 2.46e-05 cm/s
O=S(=O)([O-])CCC[n+]1ccc(-c2cc[n+](CCCS(=O)(=O)[O-])cc2)cc1 [(SPr)2V, 1,1′-bis[3-sulfonatopropyl]-4,4′-bipyridinium] | – | 2000 (≈ 801 mg/mL) | 2000 (≈ 801 mg/mL) | −0.43 | −0.79 | 3.26×10^−6 cm^2/s | 1.49e-05 cm/s | solubility ([2]; saline or isotonic): 1700 mM (≈ 681 mg/mL); diffusion constant, D, second reduction ([3]; Levich): 2.81 × 10^−6 cm^2/s; electron transfer rate constant, k^0, second reduction ([3]; Tafel): 3.96e-05 cm/s; conductivity ([4]; 0.6 M in 1.5 M KCl): 103.2 mS/cm
[I-].[K+] [KI, reference compound] | – | – | – | – | – | – | – | redox / reversible oxidation potential of catholyte [1]: 0.65 V vs NHE
CC1(C)CC([N+](C)(C)C)CC(C)(C)N1[O].[Cl-] [4-N^Me-TEMPO, N, N, N, 2,2,6,6-Heptamethylpiperidinyloxy-4-ammonium chloride] | – | – | – | – | – | – | – | solubility in H2O [2]: 2500 mM; redox / reversible oxidation potential of catholyte [1]: 1.06 V vs NHE
CC[N+](C)(C)C[c-]1cccc1.[Br-].[Fe+2].c1cc[cH-]c1 [[FcN^Et]Br, (ferrocenylmethyl)ethyldimethylammonium bromide] | 0.60 V vs NHE | 3750 | – | – | – | – | – | –
CC1(C)CC([N+](C)(C)CCC[N+](C)(C)C)CC(C)(C)N1O [4-N^NPr-TEMPO, N^1, N^1, N^1, N^3, N^3,2,2,6,6-nonamethyl-N^3-(piperidinyloxy)propane-1,3-bis(ammonium) dichloride] | – | 2300 | – | – | – | – | – | redox / reversible oxidation potential of catholyte [1]: 1.06 V vs NHE
C[n+]1ccc(-c2cc[n+](C)cc2)cc1 [MV, methyl viologen, reference compound] | – | – | 2500 | −0.45 | −0.76 | 2.57 × 10^−5 cm^2/s | 0.00028 cm/s | solubility in 2.0 M NaCl solution ([2]; 2.0 M NaCl solution): above 2.0 M; MV^2+/1+ redox couple used as reference [5]: −0.45 V vs NHE
disodium (ferrocenyl)sulfurtrioxide [FcS] | ~0.77 V vs NHE and 1.0 V vs NHE | – | – | – | – | – | – | –
